Experimental data from US20150246136A1, “NOVEL BINDER-DRUG CONJUGATES (ADCs) AND USE OF SAME” (priority 2011, published 2015).
Where a name gives a salt, the structure may show the parent alone. Square brackets hold non-standard residues; d marks the D form. Peptide text beside a SMILES is read from it. * marks the point of attachment. X2 = CC(C)[C@@H](C(=O)*)N(C)CCCCCCN1C(=O)CC(SC[C@H](N)C(=O)O)C1=O; X1 = CC(C)[C@@H](C(=O)*)N(C)CCCCCC(=O)NCCCC[C@H](N)C(=O)O; Dolaproine = CO[C@@H]([C@@H]1CCCN1)[C@@H](C)C(=O)O; Dil = CC[C@H](C)[C@H](NC)[C@@H](CC(=O)O)OC; X5 = C[C@@H](N*)[C@@H](O)c1ccccc1; Oxazinan2yl(1,2) = C1CCN(*)OC1; NMeV = CN[C@H](C(=O)O)C(C)C

Tested on: Caco2 cells
Assay: Cell permeability, flux assay using Caco2 cells
Format: in vitro ADME
Conditions: 2 hours
Protocol: C-3.3 In Vitro Tests for Determining Cell Permeability
The cell permeability of a substance can be investigated by means of in vitro testing in a flux assay using Caco2 cells (M. D. Troutman and D. R. Thakker, Pharm. Res. 20(8):1210-1224 (2003)). To do so, the cells are cultured on 24-hole filter plates for 15-16 days. To determine the permeation, the respective test substance in a HEPES buffer was applied to the cells either apically (A) or basally (B) and incubated for 2 hours. After 0 h and 2 h, samples were taken from the cis and trans compartments. The samples were separated by HPLC (Agilent 1200, Biblingen, Germany) using reverse-phase columns. The HPLC system was linked to a triple quadrupole mass spectrometer API 4000 (Applied Biosystems Applera, Darmstadt, Germany) via a turbo ion spray interface. Permeability was evaluated on the basis of a Papp value which was calculated by means of the formula published by Schwab et al. (D. Schwab et al., J. Med. Chem. 46, 1716-1725 (2003)).
The permeability of B to A (Papp (B-A)) is of crucial importance for toxophores but are released intracellularly: the lower this permeability, the longer is the dwell time of the substance in the cell after intracellular release and thus also the time available for interaction with the biochemical target (here tubulin).

Compound | Papp (B-A)
CC[C@H](C)[C@@H]([C@@H](CC(=O)N1CCC[C@H]1[C@H](OC)[C@@H](C)C(=O)N[C@@H](Cc1c[nH]c2ccccc12)C(N)=O)OC)N(C)C(=O)[C@@H](NC(=O)[C@H](C(C)C)N(C)CCCC(=O)NNC(=O)CCCCCN1C(=O)CC(SC[C@H](N)C(=O)O)C1=O)C(C)C (stereo partly drawn) [Example 233, N-(4-{2-[6-(3-{[(2R)-2-amino-2-carboxyethyl]sulfanyl}-2,5-dioxopyrrolidin-1-yl)hexanoyl]hydrazino}-4-oxobutyl)-N-methyl-L-valyl-N-[(3R,4S,5S)-1-{(2S)-2-[(1R,2R)-3-{[(2S)-1-amino-3-(1H-indol-3-yl)-1-oxopropan-2-yl]amino}-1-methoxy-2-methyl-3-oxopropyl]pyrrolidin-1-yl}-3-methoxy-5-methyl-1-oxoheptan-4-yl]-N-methyl-L-valinamide] | 0.2 ×10⁻⁶ cm/s
CC[C@H](C)[C@@H]([C@@H](CC(=O)N1CCC[C@H]1[C@H](OC)[C@@H](C)C(=O)N[C@@H](Cc1c[nH]c2ccccc12)C(=O)O)OC)N(C)C(=O)[C@@H](NC(=O)[C@H](C(C)C)N(C)CCCCCCN1C(=O)CC(SC[C@H](N)C(=O)O)C1=O)C(C)C (stereo partly drawn) [Example 237, N-[6-(3-{[(2R)-2-amino-2-carboxyethyl]sulfanyl}-2,5-dioxopyrrolidin-1-yl)hexyl]-N-methyl-L-valyl-N-[(3R,4S,5S)-1-{(2S)-2-[(1R,2R)-3-{[(1S)-1-carboxy-2-(1H-indol-3-yl)ethyl]amino}-1-methoxy-2-methyl-3-oxopropyl]pyrrolidin-1-yl}-3-methoxy-5-methyl-1-oxoheptan-4-yl]-N-methyl-L-valinamide] (X2-V[Dil][Dolaproine]W-OH) | 0.1 ×10⁻⁶ cm/s
CC[C@H](C)[C@@H]([C@@H](CC(=O)N1CCC[C@H]1[C@H](OC)[C@@H](C)C(=O)N[C@@H](Cc1c[nH]c2ccccc12)C(=O)NCc1ccccc1)OC)N(C)C(=O)[C@@H](NC(=O)[C@H](C(C)C)N(C)CCCC(=O)NNC(=O)CCCCCN1C(=O)CC(SC[C@H](N)C(=O)O)C1=O)C(C)C (stereo partly drawn) [Example 239, N-(4-{2-[6-(3-{[(2R)-2-amino-2-carboxyethyl]sulfanyl}-2,5-dioxopyrrolidin-1-yl)hexanoyl]hydrazino}-4-oxobutyl)-N-methyl-L-valyl-N-[(3R,4S,5S)-1-{(2S)-2-[(1R,2R)-3-{[(2S)-1-(benzylamino)-3-(1H-indol-3-yl)-1-oxopropan-2-yl]amino}-1-methoxy-2-methyl-3-oxopropyl]pyrrolidin-1-yl}-3-methoxy-5-methyl-1-oxoheptan-4-yl]-N-methyl-L-valinamide] | 0.7 ×10⁻⁶ cm/s
CC[C@H](C)[C@@H]([C@@H](CC(=O)N1CCC[C@H]1[C@H](OC)[C@@H](C)C(=O)N[C@@H](Cc1c[nH]c2ccccc12)C(=O)O)OC)N(C)C(=O)[C@@H](NC(=O)[C@H](C(C)C)N(C)CCCCCC(=O)NCCCC[C@H](N)C(=O)O)C(C)C [Example 278, N-(6-{[(5S)-5-amino-5-carboxypentyl]amino}-6-oxohexyl)-N-methyl-L-valyl-N-[(3R,4S,5S)-1-{(2S)-2-[(1R,2R)-3-{[(1S)-1-carboxy-2-(1H-indol-3-yl)ethyl]amino}-1-methoxy-2-methyl-3-oxopropyl]pyrrolidin-1-yl}-3-methoxy-5-methyl-1-oxoheptan-4-yl]-N-methyl-L-valinamide] (X1-V[Dil][Dolaproine]W-OH) | 0.1 ×10⁻⁶ cm/s
CC[C@H](C)[C@@H]([C@@H](CC(=O)N1CCC[C@H]1[C@H](OC)[C@@H](C)C(=O)N[C@@H](Cc1c[nH]c2ccccc12)C(=O)N1CCCCO1)OC)N(C)C(=O)[C@@H](NC(=O)[C@H](C(C)C)N(C)CCCCCC(=O)NCCCC[C@H](N)C(=O)O)C(C)C [Example 277, N-(6-{[(5S)-5-amino-5-carboxypentyl]amino}-6-oxohexyl)-N-methyl-L-valyl-N-[(3R,4S,5S)-1-{(2S)-2-[(1R,2R)-3-{[(2S)-3-(1H-indol-3-yl)-1-(1,2-oxazinan-2-yl)-1-oxopropan-2-yl]amino}-1-methoxy-2-methyl-3-oxopropyl]pyrrolidin-1-yl}-3-methoxy-5-methyl-1-oxoheptan-4-yl]-N-methyl-L-valinamide trifluoroacetate] (X1-V[Dil][Dolaproine]W-{Oxazinan2yl(1,2)}) | 0.2 ×10⁻⁶ cm/s
CC[C@H](C)[C@@H]([C@@H](CC(=O)N1CCC[C@H]1[C@H](OC)[C@@H](C)C(=O)N[C@@H](Cc1ccccc1)C(=O)O)OC)N(C)C(=O)[C@@H](NC(=O)[C@@H](NC)C(C)C)C(C)C [monomethyl auristatin F (MMAF), monomethyl auristatin F, reference compound] (H-[NMeV]V[Dil][Dolaproine]F-OH) | 7.3 ×10⁻⁶ cm/s
CC[C@H](C)[C@@H]([C@@H](CC(=O)N1CCC[C@H]1[C@H](OC)[C@@H](C)C(=O)N[C@@]1(C(=O)N2CCCCO2)C[C@@H]1c1ccccc1)OC)N(C)C(=O)[C@@H](NC(=O)[C@H](C(C)C)N(C)CCCC(=O)NNC(=O)CCCCCN1C(=O)CC(SC[C@H](N)C(=O)O)C1=O)C(C)C (stereo partly drawn) [Example 235, N-(4-{2-[6-(3-{[(2R)-2-amino-2-carboxyethyl]sulfanyl}-2,5-dioxopyrrolidin-1-yl)hexanoyl]hydrazino}-4-oxobutyl)-N-methyl-L-valyl-N-[(3R,4S,5S)-3-methoxy-1-{(2S)-2-[(1R,2R)-1-methoxy-2-methyl-3-{[(1S,2R)-1-(1,2-oxazinan-2-ylcarbonyl)-2-phenylcyclopropyl]amino}-3-oxopropyl]pyrrolidin-1-yl}-5-methyl-1-oxoheptan-4-yl]-N-methyl-L-valinamide] | 0.25 ×10⁻⁶ cm/s
CC[C@H](C)[C@@H]([C@@H](CC(=O)N1CCC[C@H]1[C@H](OC)[C@@H](C)C(=O)N[C@H](C)[C@@H](O)c1ccccc1)OC)N(C)C(=O)[C@@H](NC(=O)[C@@H](NC)C(C)C)C(C)C [monomethyl auristatin E (MMAE), monomethyl auristatin E, reference compound] (H-[NMeV]V[Dil][Dolaproine]-X5) | 7.3 ×10⁻⁶ cm/s
CC[C@H](C)[C@@H]([C@@H](CC(=O)N1CCC[C@H]1[C@H](OC)[C@@H](C)C(=O)N[C@@H](Cc1c[nH]c2ccccc12)C(=O)O)OC)N(C)C(=O)[C@@H](NC(=O)[C@H](C(C)C)N(C)CCCC(=O)NNC(=O)CCCCCN1C(=O)CC(SC[C@H](N)C(=O)O)C1=O)C(C)C (stereo partly drawn) [Example 234, N-(4-{2-[6-(3-{[(2R)-2-amino-2-carboxyethyl]sulfanyl}-2,5-dioxopyrrolidin-1-yl)hexanoyl]hydrazino}-4-oxobutyl)-N-methyl-L-valyl-N-[(3R,4S,5S)-1-{(2S)-2-[(1R,2R)-3-{[(1S)-1-carboxy-2-(1H-indol-3-yl)ethyl]amino}-1-methoxy-2-methyl-3-oxopropyl]pyrrolidin-1-yl}-3-methoxy-5-methyl-1-oxoheptan-4-yl]-N-methyl-L-valinamide] | 0.16 ×10⁻⁶ cm/s
CC[C@H](C)[C@@H]([C@@H](CC(=O)N1CCC[C@H]1[C@H](OC)[C@@H](C)C(=O)N[C@@H](Cc1c[nH]c2ccccc12)C(N)=O)OC)N(C)C(=O)[C@@H](NC(=O)[C@H](C(C)C)N(C)CCCCCCN1C(=O)CC(SC[C@H](N)C(=O)O)C1=O)C(C)C (stereo partly drawn) [Example 236, N-[6-(3-{[(2R)-2-amino-2-carboxyethyl]sulfanyl}-2,5-dioxopyrrolidin-1-yl)hexyl]-N-methyl-L-valyl-N-[(3R,4S,5S)-1-{(2S)-2-[(1R,2R)-3-{[(2S)-1-amino-3-(1H-indol-3-yl)-1-oxopropan-2-yl]amino}-1-methoxy-2-methyl-3-oxopropyl]pyrrolidin-1-yl}-3-methoxy-5-methyl-1-oxoheptan-4-yl]-N-methyl-L-valinamide] (X2-V[Dil][Dolaproine]W-NH2) | 0.5 ×10⁻⁶ cm/s
